These results are taken from US20250304551A1 (SHANGHAI APEIRON THERAPEUTICS COMPANY LIMITED, priority 2022, published 2025).

The target of experiment [1] is T1, Human KIF18A (amino acid sequence 1-417) (Homo sapiens, UniProt Q8NI77).
T1 construct: purchased Viva Biotech (Shanghai) Ltd
The experiment is described as follows: Enzyme activity detection experiment (ADP-Glo, KIF18A with tubulin and ATP). It is filed as biochemical. The note with it: tubulin 60 μg/mL, ATP 25 μM, KIF18A protein 2.5 nM, 120 minutes at ambient temperature, ADP-Glo chemiluminescence. In short, it runs like this:
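KIF18A (2.5 nM) was incubated with tubulin (60 μg/mL as added), ATP (25 μM) and serially diluted compound for 120 min at ambient temperature. ADP formed was detected by ADP-Glo: reagent for 30 min, then detection reagent for 30 min in the dark, with chemiluminescence read-out.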
On the technique in general: ADP-Glo first removes unused ATP, then detects ADP through luciferase.

Experiment [2] concerns OVCAR3 cells. Put plainly: Cell proliferation activity test, OVCAR3 (CyQUANT Direct). The note with it: Homo sapiens, OVCAR-3, 72 h, 3 days incubation, CyQUANT fluorescence detection, read-out: OVCAR-3 Cell Viability_IC50_nM. It is filed as cell-based. The gist of the method: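 OVCAR3 cells seeded overnight, then exposed to compounds at 0-10 μM final (0.20% DMSO) for 3 days at 37° C. Cell number read by CyQUANT Direct fluorescence after 60 min at 37° C.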

The subject of experiment [3] is HT29 cells. The experiment is described as follows: CyQuant cell proliferation activity test, HT29. The class given is cell-based. The note with it: Homo sapiens, HT-29, 72 h, HT29 2000 cells per well, 3 days incubation, initial concentration 3000 nM, IC50 by XLFIT, read-out: HT-29 Cell Viability_IC50_nM. The gist of the method: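 HT29 cells (2000/well, RPMI-1640 with 10% FBS) were plated overnight, then exposed to compound for 3 days at 37 °C, 5% CO2. Dosing was 9 concentrations, 3-fold dilutions from 3000 nM, in 0.20% DMSO. Proliferation was read with CyQuant reagent after 1 h, and IC50 derived from the curves.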

T1 sequence (Q8NI77 1-417): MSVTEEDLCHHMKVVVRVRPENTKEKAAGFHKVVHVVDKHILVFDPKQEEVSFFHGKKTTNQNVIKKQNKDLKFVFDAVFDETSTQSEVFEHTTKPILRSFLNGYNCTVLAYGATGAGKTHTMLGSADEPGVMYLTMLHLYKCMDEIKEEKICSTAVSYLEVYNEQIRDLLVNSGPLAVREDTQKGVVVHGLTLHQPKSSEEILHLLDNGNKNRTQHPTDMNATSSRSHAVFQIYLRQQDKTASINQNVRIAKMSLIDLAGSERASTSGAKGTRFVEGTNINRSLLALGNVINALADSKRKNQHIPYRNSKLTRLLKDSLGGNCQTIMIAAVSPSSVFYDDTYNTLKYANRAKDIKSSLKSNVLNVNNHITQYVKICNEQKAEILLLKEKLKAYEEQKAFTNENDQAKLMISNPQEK
T1 sequence (Q2XVP4 whole entry partner): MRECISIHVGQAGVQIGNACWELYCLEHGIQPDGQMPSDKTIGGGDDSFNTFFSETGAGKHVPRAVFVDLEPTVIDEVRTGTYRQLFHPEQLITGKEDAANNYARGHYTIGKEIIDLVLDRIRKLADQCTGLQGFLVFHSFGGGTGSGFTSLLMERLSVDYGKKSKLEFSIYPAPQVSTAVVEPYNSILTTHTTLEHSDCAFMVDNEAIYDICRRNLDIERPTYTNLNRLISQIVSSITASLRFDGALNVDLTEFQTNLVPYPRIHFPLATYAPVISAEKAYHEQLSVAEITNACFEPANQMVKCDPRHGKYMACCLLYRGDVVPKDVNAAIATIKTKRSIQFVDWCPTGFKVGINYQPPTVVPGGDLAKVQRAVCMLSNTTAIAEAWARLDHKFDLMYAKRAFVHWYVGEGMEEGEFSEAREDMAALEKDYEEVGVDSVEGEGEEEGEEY
T1 sequence (P02554 whole entry partner): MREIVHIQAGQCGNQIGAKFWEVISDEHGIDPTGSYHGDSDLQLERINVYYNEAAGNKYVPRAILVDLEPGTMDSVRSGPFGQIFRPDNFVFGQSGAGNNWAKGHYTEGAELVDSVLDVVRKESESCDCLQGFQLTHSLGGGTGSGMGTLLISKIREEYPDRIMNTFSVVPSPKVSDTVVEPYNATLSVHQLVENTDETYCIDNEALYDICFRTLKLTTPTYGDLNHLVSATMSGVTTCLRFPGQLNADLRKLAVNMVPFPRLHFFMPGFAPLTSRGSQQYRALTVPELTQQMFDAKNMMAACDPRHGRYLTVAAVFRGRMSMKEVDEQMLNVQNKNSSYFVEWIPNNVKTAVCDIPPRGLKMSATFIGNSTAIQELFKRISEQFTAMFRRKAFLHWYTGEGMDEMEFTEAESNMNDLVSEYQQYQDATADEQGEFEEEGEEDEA

Regarding `Cc1cc(-c2nnc(-c3ccc(NS(=O)(=O)CCO)cc3N3CCC4(CC3)CC4)o2)nc(N2CCC(F)(F)CC2)n1` [Example 15, N-(4-(5-(2-(4,4-difluoropiperidin-1-yl)-6-methylpyrimidin-4-yl)-1,3,4-oxadiazol-2-yl)-3-(6-azaspiro[2.5]octan-6-yl)phenyl)-2-hydroxyethane-1-sulfonamide], the IC50 in experiment [1] turned out to be 60 nM; in experiment [2] it was 61 nM; in experiment [3], 60 nM.

Take `O=S(=O)(CCO)Nc1ccc(-n2cc(-c3cc(N4CCC(F)(F)CC4)c4ncccc4c3)nn2)c(N2CCC3(CC2)CC3)c1` [Example 72, N-(4-(4-(8-(4,4-difluoropiperidin-1-yl)quinolin-6-yl)-1H-1,2,3-triazol-1-yl)-3-(6-azaspiro[2.5]octan-6-yl)phenyl)-2-hydroxyethane-1-sulfonamide]: the IC50 in experiment [1] was 190 nM; in experiment [2] it was 20 nM; in experiment [3], 25 nM.

For `Nc1cc(-c2cn(-c3ccc(NS(=O)(=O)CCO)cc3N3CCC4(CC3)CC4)nn2)nc(N2CCC(F)(F)CC2)n1` [Example 55, N-(4-{4-[6-amino-2-(4,4-difluoropiperidin-1-yl)pyrimidin-4-yl]-1H-1,2,3-triazol-1-yl}-3-{6-azaspiro[2.5]octan-6-yl}phenyl)-2-hydroxyethane-1-sulfonamide], the IC50 came to 40 nM in experiment [1], 3 nM in experiment [2] and 3 nM in experiment [3].

As for `Cc1cc(-n2cnc(-c3ccc(NS(=O)(=O)CCO)cc3N3CCC4(CC3)CC4)c2)cc(N2CCC(F)(F)CC2)n1` [Example 13, N-(4-(1-(2-(4,4-difluoropiperidin-1-yl)-6-methylpyridin-4-yl)-1H-imidazol-4-yl)-3-(6-azaspiro[2.5]octan-6-yl)phenyl)-2-hydroxyethane-1-sulfonamide], the IC50 in experiment [1] is 1280 nM; in experiment [2], 472 nM; in experiment [3] it was 444 nM.

`O=S(=O)(CCO)Nc1ccc(C=C(F)c2cc(N3CCC(F)(F)CC3)c3ncccc3c2)c(N2CCC3(CC2)CC3)c1` [Example 1, N-(4-(2-(8-(4,4-difluoropiperidin-1-yl)quinolin-6-yl)-2-fluorovinyl)-3-(6-azaspiro[2.5]octan-6-yl)phenyl)-2-hydroxyethane-1-sulfonamide]: the IC50 in experiment [1] is more than 3000 nM; in experiment [2], 474 nM; in experiment [3] it was 629 nM.

As for `Cc1cc(-n2cc(-c3ccc(NS(=O)(=O)[C@@H](C)CO)cc3N3CCC4(CC3)CC4)nn2)nc(N2CCC(F)(F)CC2)n1` [Example 93, (2S)—N-(3-{6-azaspiro[2.5]octan-6-yl}-4-{1-[2-(4,4-difluoropiperidin-1-yl)-6-methylpyrimidin-4-yl]-1H-1,2,3-triazol-4-yl}phenyl)-1-hydroxypropane-2-sulfonamide], the values for the IC50 in experiment [1], in experiment [2] and in experiment [3] were 315 nM, 85 nM and 83 nM, respectively.

For the compound `O=S(=O)(CCO)Nc1ccc(/C(F)=C\c2cc(N3CCC(F)(F)CC3)c3ncccc3c2)c(N2CCC3(CC2)CC3)c1` [Example 3, (E)-N-(4-(2-(8-(4,4-difluoropiperidin-1-yl)quinolin-6-yl)-1-fluorovinyl)-3-(6-azasppiro[2.5]octan-6-yl)phenyl)-2-hydroxyethane-1-sulfonamide], the values for the IC50 in experiment [1], in experiment [2] and in experiment [3] were 852 nM, 181 nM and 210 nM, respectively.

As to `Cc1cc(-c2cn(-c3ccc(NS(=O)(=O)CCO)cc3N3CCC4(CC3)CC4)nn2)nc(N2CCOCC2C)n1` (stereo not drawn) [Example 45], the IC50 in experiment [1] came out at 88 nM; in experiment [2], 22 nM; in experiment [3], 13 nM.

For the compound `Cc1cc(-c2cn(-c3ccc(NS(=O)(=O)CCO)cc3N3CCC4(CC3)CC4)nn2)nc(N2CCO[C@@H](C)C2)n1` [Example 43, (S)-2-hydroxy-N-(4-(4-(6-methyl-2-(2-methylmorpholino)pyrimidin-4-yl)-1H-1,2,3-triazol-1-yl)-3-(6-azaspiro[2.5]octan-6-yl)phenyl)ethane-1-sulfonamide], the IC50 came out at 44 nM in experiment [1], 16 nM in experiment [2] and 18 nM in experiment [3].

Regarding `Cc1cc(-c2cn(-c3ccc(NS(=O)(=O)CCO)cc3N3CCC4(CC3)CC4)nn2)nc(N2[C@H](C)COC[C@@H]2C)n1` [Example 46, N-(4-(4-(2-((3S,5R)-3,5-dimethylmorpholin)-6-methylpyrimidin-4-yl)-1H-1,2,3-triazol-1-yl)-3-(6-azaspiro[2.5]octan-6-yl)phenyl)2-hydroxyethanesulfonamide], the values for the IC50 in experiment [1], in experiment [2] and in experiment [3] were 151 nM, 14 nM and 39 nM, respectively.

Regarding `Cc1cc(-c2nnc(-c3ccc(NS(=O)(=O)CCO)cc3N3CCC4(CC3)CC4)o2)nc(N2CCO[C@H](C)C2)n1` [Example 18, (R)-2-hydroxy-N-(4-(5-(6-methyl-2-(2-methylmorpholino)pyrimidin-4-yl)-1,3,4-oxadiazol-2-yl)-3-(6-azaspiro[2.5]octan-6-yl)phenyl)ethane-1-sulfonamide], the values for the IC50 in experiment [1], in experiment [2] and in experiment [3] were 52 nM, 30 nM and 26 nM, respectively.

For `Cc1cc(-c2nnc(-c3ccc(N4CCCS4(=O)=O)cc3N3CCC4(CC3)CC4)o2)nc(N2CCC(F)(F)CC2)n1` [Example 28, 2-(4-(5-(2-(4,4-difluoropiperidin-1-yl)-6-methylpyrimidin-4-yl)-1,3,4-oxadiazol-2-yl)-3-(6-azaspiro[2.5]octan-6-yl)phenyl)isothiazolidine 1,1-dioxide], the IC50 in experiment [1] was 293 nM; in experiment [2] it was 118 nM; in experiment [3], 192 nM.

`Cc1cc(-n2cc(-c3ccc(NS(=O)(=O)CCO)cc3N3CCC4(CC3)CC4)nn2)cc(N2CCC(F)(F)CC2)n1` [Example 91]: the IC50 in experiment [1] is 278 nM; in experiment [2] it was 87 nM; in experiment [3], 126 nM.

With `Cc1cc(-c2cn(-c3ccc(NS(=O)(=O)CCO)cc3N3CCC4(CC3)CC4)nn2)c(F)c(N2CCC(F)(F)CC2)n1` [Example 65, N-(4-(4-(2-(4,4-difluoropiperidin-1-yl)-3-fluoro-6-methylpyridin-4-yl)-1H-1,2,3-triazol-1-yl)-3-(6-azaspiro[2.5]octan-6-yl)phenyl)-2-hydroxyethane-1-sulfonamide], the IC50 worked out at 383 nM in experiment [1], 116 nM in experiment [2] and 127 nM in experiment [3].

Regarding `COc1cc(-c2cn(-c3ccc(NS(=O)(=O)CCO)cc3N3CCC4(CC3)CC4)nn2)nc(N2CCC(F)(F)CC2)n1` [Example 51, N-(4-(4-(2-(4,4-difluoropiperidin-1-yl)-6-methoxypyrimidin-4-yl)-1H-1,2,3-triazol-1-yl)-3-(6-azaspiro[2.5]octan-6-yl)phenyl)-2-hydroxyethanesulfonamide], the IC50 turned out to be 131 nM in experiment [1], 24 nM in experiment [2] and 22 nM in experiment [3].

Consider `O=S(=O)(CCO)Nc1ccc(-c2cn(-c3cc(N4CCC(F)(F)CC4)c4ncccc4c3)nn2)c(N2CCC3(CC2)CC3)c1` [Example 94, N-(4-(1-(8-(4,4-difluoropiperidin-1-yl)quinolin-6-yl)-1H-1,2,3-triazol-4-yl)-3-(6-azaspiro[2.5]octan-6-yl)phenyl)-2-hydroxyethane-1-sulfonamide], for which the IC50 in experiment [1] turned out to be 227 nM; in experiment [2], 92 nM; in experiment [3], 57 nM.

`Cc1cc(-c2nnc(-c3ccc(NS(=O)(=O)CCO)cc3N3CCC4(CC3)CC4)o2)nc(N2CCC(F)(F)CC2)c1` [Example 25, N-(4-(5-(6-(4,4-difluoropiperidin-1-yl)-4-methylpyridin-2-yl)-1,3,4-oxadiazol-2-yl)-3-(6-azaspiro[2.5]octan-6-yl)phenyl)-2-hydroxyethane-1-sulfonamide]: the figures for the IC50 in experiment [1], in experiment [2] and in experiment [3] were 46 nM, 91 nM and 122 nM, respectively.

For the compound `Cc1cc(-c2cn(-c3ccc(NS(=O)(=O)CCO)cc3N3CCC4(CC3)CC4)nn2)nc(N2CCCCC2)n1` [Example 41, 2-hydroxy-N-(4-(4-(6-methyl-2-(piperidin-1-yl)pyrimidin-4-yl)-1H-1,2,3-triazol-1-yl)-3-(6-azaspiro[2.5]octan-6-yl)phenyl)ethanesulfonamide], the IC50 is 44 nM in experiment [1], 15 nM in experiment [2] and 14 nM in experiment [3].

For the compound `Cc1cc(-c2nnc(-c3ccc(NS(=O)(=O)CCO)cc3N3CCC4(CC3)CC4)o2)cc(N2CCC(F)(F)CC2)n1` [Example 24, N-(4-(5-(2-(4,4-difluoropiperidin-1-yl)-6-methylpyridin-4-yl)-1,3,4-oxadiazol-2-yl)-3-(6-azaspiro[2.5]octan-6-yl)phenyl)-2-hydroxyethane-1-sulfonamide], the IC50 is 51 nM in experiment [1], 16 nM in experiment [2] and 20 nM in experiment [3].

As to `O=S(=O)(CCO)Nc1ccc(-n2cc(-c3cc4cccnc4c(N4CCC(F)(F)CC4)c3F)nn2)c(N2CCC3(CC2)CC3)c1` [Example 73, N-(3-{6-azaspiro[2.5]octan-6-yl}-4-{4-[8-(4,4-difluoropiperidin-1-yl)-7-fluoroquinolin-6-yl]-1H-1,2,3-triazol-1-yl}phenyl)-2-hydroxyethane-1-sulfonamide], the IC50 in experiment [1] is 271 nM; in experiment [2] it was 34 nM; in experiment [3], 63 nM.
